Reference: patent US5670506A, “Halogen, isothiocyanate or azide substituted xanthines” (Cell Therapeutics, Inc., priority 1993, dated 1997)

Assays:
Assay type in all cases: cell-based
[1] = tested on: TNF release from monocytes in whole blood; experiment: ex vivo human TNF model, LPS-mediated TNF release in whole blood; conditions: FIG. 14
Experimental: (§1) This model adds LPS to whole blood (normal human volunteers) to trigger a dose-dependent synthesis and extracellular release of TNF according to Desch et al. (Lymphokine Res. 8:141, 1989). The ex vivo model examines whether LPS-mediated release of TNF from monocytes in whole blood can be block by an inventive compound.
An ex vivo human sepsis model is described in Desch et al., Lymphokine Res. 8:141, 1989 and in Ooi et al., J. Exp. Med. 174:649, 1991. Briefly, whole blood from humans is incubated with LPS (endotoxin). TNF released from cells (mostly from monocytes) is measured. The inventive compounds lower TNF levels as compared with untreated controls in this model.
as §1, with “This example illustrates a comparative experiment comparing CT1595, CT1529 and CT2519 in an ex vivo human TNF model described herein. This assay is a predictive model for treatment and prevention of septic shock and sepsis syndrome. This” for “This”

Saccharomyces cervisiae = experiment: yeast growth inhibition; conditions: FIG. 6
Experimental: This assay measures anti-yeast and anti-fungal activity of the drugs tested.
Some of the inventive compounds are effective for inhibiting yeast cell growth. This effect can be assayed by measuring growth of the yeast strain Saccharomyces cervisiae. A control yeast stain Saccharomyces cervisiae (BIO 101, Inc.) is grown overnight in YEPD broth at 30° C. An one to hundred dilution of the yeast culture is made with fresh YEPD broth. 100 μl Aliquots of the diluted culture are distributed into 96-wells titer plates. 100 μl Aliquots of drug is diluted in YEPD broth were then added to the wells. The titer plates are incubated at room temperature with continuous shaking. The cell density of the individual cultures are determined using a mircoplate reader with a A630 filter. The A630 of the individual yeast cultures are compared to control samples without adding drug. This assay is predictive of direct antimicrobial, particularly yeast and fungal, activity of the drugs studied.
This example illustrates the effects of CT2501R (a reference compound), CT1529, CT1589 and CT1519 (see Table 1 for chemical names) on yeast growth (Saccharomyces cervisiae) in the presence or absence of drug. This assays measures anti-yeast and anti-fungal activity of the drugs tested.

[2] = tested on: Ras-transformed 3T3 cells (IL-1-induced signal transduction via the Type I IL-1 receptor); experiment: DAG and PA generated after stimulation of Ras-transformed 3T3 cells with IL-1β; conditions: FIGS. 11 and 12, IL-1β stimulation
Excerpt: FIGS. 11 and 12 show the effects of CT1595 on the amount of DAG (diacylglycerol) (FIG. 11) and PA (Phosphatidic acid) (FIG. 12) generated at different times after stimulation of Ras-transformed 3T3 cells with IL-1β. CT1595 is a potent drug to inhibit enzyme activity that generates PA and then DAG by inhibiting IL-1-induced signal transduction, through this second messenger pathway, via the Type I IL-1 receptor. The inhibiting activity was not in a dose-response manner, indication that the IC50 concentration for inhibiting cellular second messenger signaling is probably below 500 nM.
One in vitro assay measures inhibition of the relevant enzymes lysophosphatidic acid acyltransferase (LPAAT) and phosphatidic acid phosphoryl hydrolase (PAPH). […] It is important to note that the assay method permits discrimination between various forms of PA and DAG so that those relevant to the pathway affected by the (R) or (S) compounds of the invention can be measured directly. […] Thus, the relevant unsaturated (non-arachidonic) PA and DAG subspecies may be detected. […]

Question: How did the “block of LPS-mediated TNF release” value [1] turn out when `Cn1cnc2c1c(=O)n(CCCCC(=O)CCl)c(=O)n2C` [CT1595, 1-(6-chloro-5-oxohexyl)-3,7-dimethylxanthine] was run?
Answer: The value was “could block TNF release in a dose-dependent fashion”.

Question: And the yeast growth inhibition (Saccharomyces cervisiae)?
Answer: The yeast growth inhibition was “strongly inhibited yeast growth”.

Question: What about the “inhibition of DAG and PA generation” value ([2]; in words) of the same compound?
Answer: The value was “the overall signal is being significantly inhibited”.

Question: What about the IC50 ([2]; Mus musculus, NIH3T3, "probably" below, read-out: IC50 for inhibiting cellular second messenger signaling) of the same compound?
Answer: Its IC50 is < 500 nM.
